Experimental data reported in BindingDB's records for PubMed 2338642 (Marion Merrell Dow, 1990).
“And” between values parts separate entries of the source, which are not always exact repeats. Equal entries are not always repeated.

biological target: Voltage-dependent L-type calcium channel subunit alpha-1C (Rattus norvegicus, UniProt P22002)
Sequence (P22002 whole entry): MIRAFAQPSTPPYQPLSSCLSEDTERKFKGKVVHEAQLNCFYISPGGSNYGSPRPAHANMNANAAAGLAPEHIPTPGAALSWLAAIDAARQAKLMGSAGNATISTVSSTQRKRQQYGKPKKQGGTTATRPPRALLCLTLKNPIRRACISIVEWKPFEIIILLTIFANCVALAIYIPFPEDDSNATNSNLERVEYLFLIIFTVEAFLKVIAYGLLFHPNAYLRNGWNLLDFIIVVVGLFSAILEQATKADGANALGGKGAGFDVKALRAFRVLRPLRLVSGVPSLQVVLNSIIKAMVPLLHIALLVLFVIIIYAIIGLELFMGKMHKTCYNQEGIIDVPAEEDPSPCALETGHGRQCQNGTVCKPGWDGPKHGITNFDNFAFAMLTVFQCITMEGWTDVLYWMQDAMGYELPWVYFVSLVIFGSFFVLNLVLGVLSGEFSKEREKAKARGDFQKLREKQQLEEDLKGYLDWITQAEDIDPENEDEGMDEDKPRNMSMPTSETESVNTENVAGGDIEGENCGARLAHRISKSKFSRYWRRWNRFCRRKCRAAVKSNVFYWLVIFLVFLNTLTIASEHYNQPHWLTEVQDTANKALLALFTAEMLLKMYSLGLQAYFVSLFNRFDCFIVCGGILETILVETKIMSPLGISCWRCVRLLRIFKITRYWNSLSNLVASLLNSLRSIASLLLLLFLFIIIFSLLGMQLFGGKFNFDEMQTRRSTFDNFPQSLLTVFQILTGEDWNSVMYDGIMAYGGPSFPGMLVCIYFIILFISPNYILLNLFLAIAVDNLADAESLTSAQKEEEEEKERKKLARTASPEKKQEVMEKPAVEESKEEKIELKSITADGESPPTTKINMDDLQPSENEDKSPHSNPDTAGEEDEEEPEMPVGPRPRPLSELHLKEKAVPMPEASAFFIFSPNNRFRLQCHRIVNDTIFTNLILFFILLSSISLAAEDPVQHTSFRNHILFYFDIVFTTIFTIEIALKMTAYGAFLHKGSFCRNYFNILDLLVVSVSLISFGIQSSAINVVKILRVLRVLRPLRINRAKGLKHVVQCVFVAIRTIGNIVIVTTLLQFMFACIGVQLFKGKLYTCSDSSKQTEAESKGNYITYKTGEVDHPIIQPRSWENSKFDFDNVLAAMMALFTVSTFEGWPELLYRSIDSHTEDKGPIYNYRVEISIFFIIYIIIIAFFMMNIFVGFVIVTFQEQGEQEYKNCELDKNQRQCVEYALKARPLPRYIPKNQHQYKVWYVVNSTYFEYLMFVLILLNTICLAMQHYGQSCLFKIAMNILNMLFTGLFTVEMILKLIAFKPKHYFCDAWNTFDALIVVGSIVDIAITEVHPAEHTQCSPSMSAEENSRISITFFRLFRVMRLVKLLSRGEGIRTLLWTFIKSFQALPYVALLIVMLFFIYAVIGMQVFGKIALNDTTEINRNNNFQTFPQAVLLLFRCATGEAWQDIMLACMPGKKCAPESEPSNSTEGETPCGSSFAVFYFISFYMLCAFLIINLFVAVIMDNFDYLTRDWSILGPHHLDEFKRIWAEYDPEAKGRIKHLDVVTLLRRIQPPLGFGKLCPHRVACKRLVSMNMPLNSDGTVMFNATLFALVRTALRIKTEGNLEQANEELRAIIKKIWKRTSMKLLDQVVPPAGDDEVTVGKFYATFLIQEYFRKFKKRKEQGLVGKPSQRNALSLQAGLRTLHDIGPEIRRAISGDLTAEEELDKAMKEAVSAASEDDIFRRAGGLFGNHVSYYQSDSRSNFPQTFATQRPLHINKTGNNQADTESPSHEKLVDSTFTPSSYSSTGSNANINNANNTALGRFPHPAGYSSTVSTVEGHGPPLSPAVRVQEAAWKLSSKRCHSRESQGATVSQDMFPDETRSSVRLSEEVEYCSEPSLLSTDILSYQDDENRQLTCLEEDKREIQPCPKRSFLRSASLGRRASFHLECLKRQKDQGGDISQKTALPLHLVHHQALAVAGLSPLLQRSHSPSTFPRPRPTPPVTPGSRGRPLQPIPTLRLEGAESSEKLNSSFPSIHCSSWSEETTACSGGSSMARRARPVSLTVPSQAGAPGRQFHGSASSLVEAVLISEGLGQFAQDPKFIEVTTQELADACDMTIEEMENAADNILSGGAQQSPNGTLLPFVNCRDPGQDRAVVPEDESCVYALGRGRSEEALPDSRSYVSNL

| Compound | Ki |
| --- | --- |
| COc1ccc([C@@H]2Sc3cc(Cl)ccc3N(CCN(C)C)C(=O)[C@@H]2OC(C)=O)cc1 [CAS_96128-92-6] | > 10 µM |
| COc1cc2nc(N3CCN(C(=O)c4ccco4)CC3)nc(N)c2cc1OC [[3H]-Minipress] | 6 µM and > 10 µM |
| COc1ccc([C@H]2Sc3cc(Cl)ccc3N(CCN(C)C)C(=O)[C@H]2OC(C)=O)cc1 [l-TA-3090] | > 10 µM |
